Test results from patent US20230024302A1, “2,3,5-TRISUBSTITUTED PYRAZOLO[1,5-A]PYRIMIDINE COMPOUNDS” (Arcus Biosciences, Inc., priority 2019, published 2023).

Assays:
PI3Kγ = molecular target: T1, PI3Kγ (Homo sapiens, UniProt P48736); assay: PI3Kγ cellular assay in THP-1 cells (AKT pS473 AlphaLISA); type: cell-based; details: Table 2, rhMCP-1 stimulated AKT pS473, read-out: cellular potency (PI3Kγ IC50)
T1 construct: host or cells: THP-1
Outline: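 Serum-starved THP-1 cells (1.8×10^5/well, serum-free DMEM) treated with compounds from 4 nM to 30 μM in 2% DMSO, then stimulated and lysed.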

PI3Kγ (p120γ) = molecular target: T2, PI3Kγ (p120γ) (Homo sapiens, UniProt P48736); assay: Inhibition of PI3K kinase activity (ADP Glo), PI3Kγ; details: Table 2, p120γ, read-out: biochemical potency (PI3Kγ IC50)
T2 construct: purchased Promega V1761
T2 sequence (P48736 whole entry): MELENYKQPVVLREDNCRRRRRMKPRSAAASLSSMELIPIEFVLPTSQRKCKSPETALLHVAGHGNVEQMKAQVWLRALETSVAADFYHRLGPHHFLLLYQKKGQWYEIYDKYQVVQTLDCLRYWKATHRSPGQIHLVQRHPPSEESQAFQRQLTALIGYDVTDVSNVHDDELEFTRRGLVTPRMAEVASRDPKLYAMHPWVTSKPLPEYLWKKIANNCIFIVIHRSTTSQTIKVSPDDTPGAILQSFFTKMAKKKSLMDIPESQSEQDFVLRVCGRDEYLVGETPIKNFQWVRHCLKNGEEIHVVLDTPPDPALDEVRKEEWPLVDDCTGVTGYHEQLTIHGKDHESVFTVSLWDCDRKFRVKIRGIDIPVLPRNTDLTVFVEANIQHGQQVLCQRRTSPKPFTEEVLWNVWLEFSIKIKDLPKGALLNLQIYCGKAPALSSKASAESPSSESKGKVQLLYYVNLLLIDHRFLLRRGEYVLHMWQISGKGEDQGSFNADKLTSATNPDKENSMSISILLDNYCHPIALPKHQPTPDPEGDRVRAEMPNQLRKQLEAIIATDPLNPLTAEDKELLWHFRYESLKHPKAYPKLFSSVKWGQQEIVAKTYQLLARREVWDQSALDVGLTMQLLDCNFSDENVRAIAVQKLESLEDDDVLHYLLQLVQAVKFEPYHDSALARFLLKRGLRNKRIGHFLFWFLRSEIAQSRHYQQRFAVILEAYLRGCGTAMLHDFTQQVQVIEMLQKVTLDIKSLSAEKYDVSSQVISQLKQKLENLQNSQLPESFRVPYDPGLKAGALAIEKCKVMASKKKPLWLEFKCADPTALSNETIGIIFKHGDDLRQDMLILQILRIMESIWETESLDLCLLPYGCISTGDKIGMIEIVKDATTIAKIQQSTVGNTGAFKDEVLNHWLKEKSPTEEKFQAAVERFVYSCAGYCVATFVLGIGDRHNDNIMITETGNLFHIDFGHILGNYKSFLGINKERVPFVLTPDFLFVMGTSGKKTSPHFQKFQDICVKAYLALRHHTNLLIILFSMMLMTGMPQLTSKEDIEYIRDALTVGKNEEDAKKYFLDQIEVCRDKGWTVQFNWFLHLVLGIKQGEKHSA
Outline: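 Recombinant p120γ (8 nM, 2× stock) was preincubated with compound for 1 h at rt in HEPES pH 7.4, NaCl, MgCl2 and 0.05% BSA. Reaction was started with PIP2 (0.1 mg/ml, 2×) and ATP (50 μM, 2×) and ran 60 min at rt. ADP formed was read by ADP-Glo luminescence, and IC50 came from a 4-parameter fit.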

T1 sequence (P48736 whole entry): as above

SMILES | IC50 (PI3Kγ) [nM] | IC50 (PI3Kγ (p120γ)) [nM]
Cc1cc(-c2ccn3nc(N)c(C(=O)N[C@@H](C)C4CCNCC4)c3n2)cc2c1C(=O)N([C@@H](C)C1CC1)C2 [Example 290] | > 1000 | 100 to 1000
Cc1cc(-c2ccn3nc(N)c(C(=O)N4CCN(C)CC4)c3n2)cc2c1C(=O)N(C(C)C1CC1)C2 (stereo not drawn) [Example 291] | > 1000 | > 1000
Cc1cc(-c2ccn3nc(N)c(C(=O)Nc4cn(C)nc4C)c3n2)cc2c1C(=O)N([C@@H](C)C1CC1)C2 [Example 292] | 100 to 1000 | < 100
Cc1cc(NC(=O)c2c(N)nn3ccc(-c4cc(C)c5c(c4)CN([C@@H](C)C4CC4)C5=O)nc23)ccc1C(=O)O [Example 293] | 100 to 1000 | < 100
Cc1cc(-c2ccn3nc(N)c(C(=O)Nc4cnn(C5CC5)c4)c3n2)cc2c1C(=O)N([C@@H](C)C1CC1)C2 [Example 294] | 100 to 1000 | < 100
CCn1cc(NC(=O)c2c(N)nn3ccc(-c4cc(C)c5c(c4)CN([C@@H](C)C4CC4)C5=O)nc23)cn1 [Example 295] | 100 to 1000 | < 100
Cc1cc(-c2ccn3nc(N)c(C(=O)Nc4cnn(C)c4F)c3n2)cc2c1C(=O)N([C@@H](C)C1CC1)C2 [Example 296] | 100 to 1000 | < 100
Cc1cc(NC(=O)c2c(N)nn3ccc(-c4cc(C)c5c(c4)CN([C@@H](C)C4CC4)C5=O)nc23)ccn1 [Example 297] | 100 to 1000 | < 100
Cc1cc(-c2ccn3nc(N)c(C(=O)Nc4ccccc4)c3n2)cc2c1C(=O)N([C@@H](C)C1CC1)C2 [Example 298] | > 1000 | < 100
Cc1cc(-c2ccn3nc(N)c(C(=O)Nc4ccc(Cl)cc4)c3n2)cc2c1C(=O)N([C@@H](C)C1CC1)C2 [Example 299] | > 1000 | < 100
Cc1csc(NC(=O)c2c(N)nn3ccc(-c4cc(C)c5c(c4)CN([C@@H](C)C4CC4)C5=O)nc23)n1 [Example 300] | > 1000 | < 100
Cc1cc(-c2ccn3nc(N)c(C(=O)NC4CC4)c3n2)cc2c1C(=O)N([C@@H](C1CC1)C(F)(F)F)C2 [Example 301] | 100 to 1000 | < 100
CC[C@H](C)N1Cc2cc(-c3ccn4nc(N)c(C(=O)NC5CC5)c4n3)cc(C)c2C1=O [Example 302] | 100 to 1000 | < 100
Cc1cc(-c2ccn3nc(N)c(C(=O)NC4CC4)c3n2)cc2c1C(=O)N(C1CC1)C2 [Example 303] | 100 to 1000 | < 100
Cc1cc(-c2ccn3nc(N)c(C(=O)NC4CC4)c3n2)cc2c1C(=O)N(C(C)C)C2 [Example 304] | 100 to 1000 | < 100
CCN1Cc2cc(-c3ccn4nc(N)c(C(=O)NC5CC5)c4n3)cc(C)c2C1=O [Example 305] | 100 to 1000 | < 100
CC[C@@H](C)N1Cc2cc(-c3ccn4nc(N)c(C(=O)NC5CC5)c4n3)cc(C)c2C1=O [Example 306] | 100 to 1000 | < 100
Cc1cc(-c2ccn3nc(N)c(C(=O)NC4CC4)c3n2)cc2c1C(=O)N(CC1CC1)C2 [Example 307] | 100 to 1000 | < 100
CC[C@H](CO)N1Cc2cc(-c3ccn4nc(N)c(C(=O)NC5CC5)c4n3)cc(C)c2C1=O [Example 308] | 100 to 1000 | < 100
CC[C@@H](CO)N1Cc2cc(-c3ccn4nc(N)c(C(=O)NC5CC5)c4n3)cc(C)c2C1=O [Example 309] | 100 to 1000 | < 100
Cc1cc(-c2ccn3nc(N)c(C(=O)NC4CC4)c3n2)cc2c1C(=O)N([C@H](CO)C1CC1)C2 [Example 310] | 100 to 1000 | < 100
Cc1cc(-c2ccn3nc(N)c(C(=O)NC4CC4)c3n2)cc2c1C(=O)N([C@@H](CO)C1CC1)C2 [Example 311] | 100 to 1000 | < 100
Cc1cc(-c2ccn3nc(N)c(C(=O)N[C@@H](CO)C4CC4)c3n2)cc2c1C(=O)N(C(C)(C)CO)C2 [Example 312] | 100 to 1000 | < 100
Cc1cc(-c2ccn3nc(N)c(C(=O)N[C@@H](C)c4ccccc4F)c3n2)cc2c1C(=O)N(C(C)(C)CO)C2 [Example 313] | 100 to 1000 | < 100
Cc1cc(-c2ccn3nc(N)c(C(=O)NC4(C)COC4)c3n2)cc2c1C(=O)N(C(C)(C)CO)C2 [Example 314] | 100 to 1000 | < 100
Cc1cc(-c2ccn3nc(N)c(C(=O)NC4COC4)c3n2)cc2c1C(=O)N(C(C)(C)CO)C2 [Example 315] | 100 to 1000 | < 100
Cc1cc(-c2ccn3nc(N)c(C(=O)NC4CC4)c3n2)cc2c1C(=O)N(C(C)(C)CO)C2 [Example 316] | 100 to 1000 | < 100
